Measurements taken from ChEMBL document CHEMBL1212769, “Multiple-dose safety, tolerability, and pharmacokinetics of oral nemonoxacin (TG-873870) in healthy volunteers” (Antimicrob Agents Chemother, 2010).

Columns and labels:
[1] = Renal clearance in human at 75 […], po measured on day 10; format: ADME, organism-based, Kidney; parameters: route oral; settings: in vivo, read-out: CL_renal (converted)
[2] = Renal clearance in human at 250 […], po measured on day 1; format: ADME, organism-based, Kidney; parameters: route oral; settings: in vivo, read-out: CL_renal (converted)
[3] = Renal clearance in human at 250 […], po measured on day 10; format: ADME, organism-based, Kidney; parameters: route oral; settings: in vivo, read-out: CL_renal (converted)
[4] = Renal clearance in human at 500 […], po measured on day 1; format: ADME, organism-based, Kidney; parameters: route oral; settings: in vivo, read-out: CL_renal (converted)
[5] = Renal clearance in human at 500 […], po measured on day 10; format: ADME, organism-based, Kidney; parameters: route oral; settings: in vivo, read-out: CL_renal (converted)
[6] = Renal clearance in human at 500 […], po measured on day 16; format: ADME, organism-based, Kidney; parameters: route oral; settings: in vivo, read-out: CL_renal (converted)
[7] = Renal clearance in human at 750 […], po measured on day 1; format: ADME, organism-based, Kidney; parameters: route oral; settings: in vivo, read-out: CL_renal (converted)
[8] = Renal clearance in human at […], po measured on day 10; format: ADME, organism-based, Kidney; settings: in vivo, read-out: CL_renal (converted)
[9] = Renal clearance in human at 1000 […], po measured on day 1; format: ADME, organism-based, Kidney; parameters: route oral; settings: in vivo, read-out: CL_renal (converted)
[10] = Renal clearance in human at 1000 […], po measured on day 10; format: ADME, organism-based, Kidney; parameters: route oral; settings: in vivo, read-out: CL_renal (converted)
[11] = AUC (0 to 24 hrs) in human at 75 mg/kg, po measured on day 10; format: ADME, organism-based; parameters: time < 24 hr, dose 75 mg/kg, route oral; settings: plasma
[12] = AUC (0 to last) in human at 75 mg/kg, po measured on day 1; format: ADME, organism-based; parameters: time 0 - last, dose 75 mg/kg, route oral; settings: plasma
[13] = AUC (0 to 24 hrs) in human at 250 mg/kg, po measured on day 10; format: ADME, organism-based; parameters: time < 24 hr, dose 250 mg/kg, route oral; settings: plasma
[14] = AUC (0 to last) in human at 250 mg/kg, po measured on day 1; format: ADME, organism-based; parameters: time 0 - last, dose 250 mg/kg, route oral; settings: plasma
[15] = AUC (0 to 24 hrs) in human at 750 mg/kg, po measured on day 10; format: ADME, organism-based; parameters: time < 24 hr, dose 750 mg/kg, route oral; settings: plasma
[16] = AUC (0 to last) in human at 750 mg/kg, po measured on day 1; format: ADME, organism-based; parameters: dose 750 mg/kg, route oral, time 0 - last; settings: plasma
[17] = AUC (0 to 24 hrs) in human at 1000 […], po measured on day 10; format: ADME, organism-based; parameters: time < 24 hr, dose 1000 mg/kg, route oral; settings: plasma
[18] = AUC (0 to last) in human at 1000 […], po measured on day 1; format: ADME, organism-based; parameters: time 0 - last, dose 1000 mg/kg, route oral; settings: plasma
[19] = AUC (0 to 24 hrs) in human at 500 mg/kg, po measured on day 1; format: ADME, organism-based; parameters: time < 24 hr, dose 500 mg/kg, route oral; settings: plasma
[20] = AUC (0 to 24 hrs) in human at 500 mg/kg, po measured on day 16; format: ADME, organism-based; parameters: time < 24 hr, dose 500 mg/kg, route oral; settings: plasma
[21] = AUC(0 to last) in human at 500 mg/kg, po measured on day 1; format: ADME, organism-based; parameters: time 0 - last, dose 500 mg/kg, route oral; settings: plasma
[22] = AUC (0 to last) in human at 500 mg/kg, po measured on day 10; format: ADME, organism-based; parameters: time 0 - last, dose 500 mg/kg, route oral; settings: plasma
[23] = Oral clearance in human at 750 […] measured on day 1; format: ADME, organism-based; settings: in vivo
[24] = Oral clearance in human at 750 […] measured on day 10; format: ADME, organism-based; settings: in vivo
Streptococcus pneumoniae = assay: Ratio of fAUC (0 to 24 hrs) to MIC90 for Streptococcus pneumoniae; format: functional
[25] = Cmax in human at 500 […], po measured on day 16; format: ADME, organism-based; parameters: dose 500 mg/kg, route oral; settings: in vivo
Homo sapiens [26] = assay: Toxicity in human assessed as incidence of headache at 1000 […], po administered as single dose; format: organism-based; parameters: route oral; settings: in vivo
Homo sapiens [27] = assay: Toxicity in human assessed as occurrence of dermatitis at 250 […], po administered as single dose; format: organism-based; parameters: route oral; settings: in vivo
Homo sapiens [28] = assay: Toxicity in human assessed as occurrence of dermatitis at 500 […], po administered as single dose; format: organism-based; parameters: route oral; settings: in vivo
Homo sapiens [29] = assay: Toxicity in human assessed as occurrence of dermatitis at 750 […], po administered as single dose; format: organism-based; parameters: route oral; settings: in vivo
Homo sapiens [30] = assay: Toxicity in human assessed as occurrence of rashes at 75 […], po administered as single dose; format: organism-based; parameters: route oral; settings: in vivo
Homo sapiens [31] = assay: Toxicity in human assessed as occurrence of rashes at 250 […], po administered as single dose; format: organism-based; parameters: route oral; settings: in vivo
Homo sapiens [32] = assay: Toxicity in human assessed as occurrence of rashes at 1000 […], po administered as single dose; format: organism-based; parameters: route oral; settings: in vivo
Homo sapiens [33] = assay: Toxicity in human assessed as occurrence of abdominal pain at 250 […], po administered as single dose; format: organism-based, Abdomen; parameters: route oral; settings: in vivo
Homo sapiens [34] = assay: Toxicity in human assessed as occurrence of abdominal pain at 500 […], po administered as single dose; format: organism-based, Abdomen; parameters: route oral; settings: in vivo
Homo sapiens [35] = assay: Toxicity in human assessed as occurrence of abdominal pain at 750 […], po administered as single dose; format: organism-based, Abdomen; parameters: route oral; settings: in vivo
Homo sapiens [36] = assay: Toxicity in human assessed as occurrence of abdominal pain at 1000 […], po administered as single dose; format: organism-based, Abdomen; parameters: route oral; settings: in vivo
Homo sapiens [37] = assay: Toxicity in human assessed as occurrence of pruritus at 75 […], po administered as single dose; format: organism-based; parameters: route oral; settings: in vivo
Homo sapiens [38] = assay: Toxicity in human assessed as occurrence of pruritus at 250 […], po administered as single dose; format: organism-based; parameters: route oral; settings: in vivo
Homo sapiens [39] = assay: Toxicity in human assessed as occurrence of pruritus at 500 […], po administered as single dose; format: organism-based; parameters: route oral; settings: in vivo
Homo sapiens [40] = assay: Toxicity in human assessed as occurrence of diarrhea at 250 […], po administered as single dose; format: organism-based; parameters: route oral; settings: in vivo
Homo sapiens [41] = assay: Toxicity in human assessed as occurrence of diarrhea at 500 […], po administered as single dose; format: organism-based; parameters: route oral; settings: in vivo
Homo sapiens [42] = assay: Toxicity in human assessed as occurrence of diarrhea at 750 […], po administered as single dose; format: organism-based; parameters: route oral; settings: in vivo
Homo sapiens [43] = assay: Toxicity in human assessed as occurrence of diarrhea at […], po administered as single dose; format: organism-based; parameters: route oral; dose or concentration left out as unconfirmed; settings: in vivo
Homo sapiens [44] = assay: Toxicity in human assessed as occurrence of pollakiuria at 75 […], po administered as single dose; format: organism-based; parameters: route oral; settings: in vivo
Homo sapiens [45] = assay: Toxicity in human assessed as occurrence of pollakiuria at 250 […], po administered as single dose; format: organism-based; parameters: route oral; settings: in vivo
Homo sapiens [46] = assay: Toxicity in human assessed as occurrence of pollakiuria at 500 […], po administered as single dose; format: organism-based; parameters: route oral; settings: in vivo
Homo sapiens [47] = assay: Toxicity in human assessed as occurrence of somnolence at 250 […], po administered as single dose; format: organism-based; parameters: route oral; settings: in vivo
Homo sapiens [48] = assay: Toxicity in human assessed as occurrence of somnolence at 500 […], po administered as single dose; format: organism-based; parameters: route oral; settings: in vivo
Homo sapiens [49] = assay: Toxicity in human assessed as occurrence of somnolence at 750 […], po administered as single dose; format: organism-based; parameters: route oral; settings: in vivo
Homo sapiens [50] = assay: Toxicity in human assessed as occurrence of somnolence at 1000 […], po administered as single dose; format: organism-based; parameters: route oral; settings: in vivo
[51] = Cmax in human at 75 […], po measured on day 1; format: ADME, organism-based; parameters: dose 75 mg/kg, route oral; settings: in vivo
[52] = Cmax in human at 250 […], po measured on day 1; format: ADME, organism-based; parameters: dose 250 mg/kg, route oral; settings: in vivo
Homo sapiens [53] = species: Homo sapiens; assay: Plasma protein binding in human; settings: read-out: PPB (converted)

CL renal [1]: 168 mL/min
CL renal [2]: 115 mL/min
CL renal [3]: 129 mL/min
CL renal [4]: 115 mL/min
CL renal [5]: 131 mL/min
CL renal [6]: 113 mL/min
CL renal [7]: 133 mL/min
CL renal [8]: 93.8 mL/min
CL renal [9]: 125 mL/min
CL renal [10]: 115 mL/min
AUC at 24 h [11]: 4270 ng·h/mL
AUC(0-t) [12]: 3780 ng·h/mL
AUC at 24 h [13]: 16100 ng·h/mL
AUC(0-t) [14]: 13700 ng·h/mL
AUC at 24 h [15]: 58400 ng·h/mL
AUC(0-t) [16]: 46000 ng·h/mL
AUC at 24 h [17]: 74800 ng·h/mL
AUC(0-t) [18]: 59600 ng·h/mL
AUC(0-t) at 24 h [19]: 31600 ng·h/mL
AUC at 24 h [20]: 22700 ng·h/mL
AUC(0-t) [21]: 31600 ng·h/mL
AUC(0-t) [22]: 46700 ng·h/mL
CL/F [23]: 252 mL/min
CL/F [24]: 189 mL/min
Cmax [25]: 2750 ng/mL
Cmax [51]: 502 ng/mL
Cmax [52]: 2000 ng/mL
fraction unbound (Homo sapiens [53]): 0.84
Compound: COc1c(N2C[C@@H](C)C[C@H](N)C2)ccc2c(=O)c(C(=O)O)cn(C3CC3)c12 [NEMONOXACIN]
Ratio (Streptococcus pneumoniae): > 100
Activity (Homo sapiens [26]): 0%
Activity (Homo sapiens [27]): 0%
Activity (Homo sapiens [28]): 0%
Activity (Homo sapiens [29]): 0%
Activity (Homo sapiens [30]): 0%
Activity (Homo sapiens [31]): 0%
Activity (Homo sapiens [32]): 0%
Activity (Homo sapiens [33]): 0%
Activity (Homo sapiens [34]): 0%
Activity (Homo sapiens [35]): 0%
Activity (Homo sapiens [36]): 0%
Activity (Homo sapiens [37]): 0%
Activity (Homo sapiens [38]): 0%
Activity (Homo sapiens [39]): 0%
Activity (Homo sapiens [40]): 0%
Activity (Homo sapiens [41]): 0%
Activity (Homo sapiens [42]): 0%
Activity (Homo sapiens [43]): 0%
Activity (Homo sapiens [44]): 0%
Activity (Homo sapiens [45]): 0%
Activity (Homo sapiens [46]): 0%
Activity (Homo sapiens [47]): 0%
Activity (Homo sapiens [48]): 0%
Activity (Homo sapiens [49]): 0%
Activity (Homo sapiens [50]): 0%
